Results from patent EP4603105A1, “PHARMACEUTICAL COMPOSITION CONTAINING CYCLIC COMPOUND HAVING SELECTIVE KRAS INHIBITORY EFFECT AGAINST HRAS AND NRAS” (CHUGAI SEIYAKU KABUSHIKI KAISHA, priority 2022, dated 2024).
Where a SMILES comes first, the peptide text is derived from it. Bridges are numbered along the chain shown (N, C = ends). [ ]: non-standard residue; d: D form. The star is where a group is joined. hPhe(3-Cl-4-CF3) = N[C@@H](CCc1ccc(C(F)(F)F)c(Cl)c1)C(=O)O; NPrPhe(4-CF3) = CCCN[C@@H](Cc1ccc(C(F)(F)F)cc1)C(=O)O; NMeGly(cPent) = CN[C@H](C(=O)O)C1CCCC1; Pro(4,4-F2) = O=C(O)[C@@H]1CC(F)(F)CN1; Hyp = O=C(O)[C@@H]1C[C@@H](O)CN1; NMeL = CN[C@@H](CC(C)C)C(=O)O; Morpholide = C1CN(*)CCO1; NMeA = CN[C@@H](C)C(=O)O; Ac5c = NC1(C(=O)O)CCCC1; Aze = O=C(O)[C@@H]1CCN1; Ac4c = NC1(C(=O)O)CCC1; NEtG = CCNCC(=O)O; Sar = CNCC(=O)O

Columns and labels:
[1] = target: GDP-bound NRAS wild-type protein (Homo sapiens, UniProt P01111); assay: Binding to NRAS by surface plasmon resonance (SPR), KD and KD ratio to KRAS; conditions: ratio of KD for GDP-bound NRAS wild-type protein to KD for KRAS
In short: (§1)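 Compound binding is evaluated by SPR single-cycle kinetics, with concentrations added intermittently from low to high for 75 s each. Target surfaces carry GDP-loaded biotinylated Avi-RAS at about 100–300 RU, regenerated after each cycle; temperature 30°C. A 1:1 binding model gives KD.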

HRAS wild-type protein = HRAS wild-type protein (Homo sapiens, UniProt P01112); assay: Binding to HRAS by surface plasmon resonance (SPR), KD and KD ratio to KRAS; conditions: ratio of KD for HRAS wild-type protein to KD for KRAS
In short: as §1

[2] = test system: human lung cancer strain NCI-H441; format: cell-based
In short: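 Proliferation was scored by […] measured after the reagent was added to cultures kept at 37°C in 5% carbon dioxide.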

GDP-bound NRAS wild-type protein, sequence (P01111 whole entry): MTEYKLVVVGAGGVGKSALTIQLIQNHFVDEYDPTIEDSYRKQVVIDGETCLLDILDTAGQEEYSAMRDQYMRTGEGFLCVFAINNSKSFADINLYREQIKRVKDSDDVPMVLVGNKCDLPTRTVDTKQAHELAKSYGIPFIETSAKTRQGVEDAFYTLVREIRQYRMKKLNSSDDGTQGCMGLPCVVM
HRAS wild-type protein, sequence (P01112 whole entry): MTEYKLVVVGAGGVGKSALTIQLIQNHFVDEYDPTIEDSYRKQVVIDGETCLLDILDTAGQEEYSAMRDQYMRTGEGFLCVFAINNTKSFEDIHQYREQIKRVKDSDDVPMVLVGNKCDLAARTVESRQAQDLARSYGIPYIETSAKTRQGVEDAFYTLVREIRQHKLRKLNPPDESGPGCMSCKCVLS

Structure (SMILES)	IC50 [2]	NRAS /KRAS [1]	HRAS /KRAS (HRAS wild-type protein)
CCCN1C(=O)CN(C)C(=O)CN(CC)C(=O)[C@H]([C@@H](C)CC)NC(=O)[C@H](CC(C)C)N(C)C(=O)C[C@@H](C(=O)N2CCOCC2)NC(=O)[C@H](C2CCCC2)N(C)C(=O)C2(CCC2)NC(=O)[C@@H]2C[C@@H](OCC)CN2C(=O)[C@H](CCc2ccc(C(F)(F)F)c(Cl)c2)NC(=O)CN(C)C(=O)[C@@H]1Cc1ccc(C(F)(F)F)cc1 [PP0336] ([NMeL]I[NEtG][Sar][NPrPhe(4-CF3)][Sar][hPhe(3-Cl-4-CF3)][Hyp](Et)[Ac4c][NMeGly(cPent)]D-Morpholide; lactam N-11)	73.2 nM	B (a compound having 3 or more and less than 10 is denoted as B)	B (a compound having 3 or more and less than 10 is denoted as B)
CCCN1C(=O)CN(C)C(=O)[C@@H]2CCN2C(=O)[C@H]([C@@H](C)CC)NC(=O)[C@H](CC(C)C)N(C)C(=O)C[C@@H](C(=O)N2CCOCC2)NC(=O)[C@H](C2CCCC2)N(C)C(=O)C2(CCCC2)NC(=O)[C@@H]2CCCN2C(=O)[C@H](CCc2ccc(C(F)(F)F)c(Cl)c2)NC(=O)CN(C)C(=O)[C@@H]1Cc1ccc(C(F)(F)F)cc1 [PP0337] ([NMeL]I[Aze][Sar][NPrPhe(4-CF3)][Sar][hPhe(3-Cl-4-CF3)]P[Ac5c][NMeGly(cPent)]D-Morpholide; lactam N-11)	333 nM	B (a compound having 3 or more and less than 10 is denoted as B)	B (a compound having 3 or more and less than 10 is denoted as B)
CCCN1C(=O)CN(C)C(=O)[C@@H]2CCN2C(=O)[C@H]([C@@H](C)CC)NC(=O)[C@H](CC(C)C)N(C)C(=O)C[C@@H](C(=O)N2CCOCC2)NC(=O)[C@H](C2CCCC2)N(C)C(=O)C2(CCCC2)NC(=O)[C@@H]2CC(F)(F)CN2C(=O)[C@H](CCc2ccc(C(F)(F)F)c(Cl)c2)NC(=O)CN(C)C(=O)[C@@H]1Cc1ccc(C(F)(F)F)cc1 [PP0339] ([NMeL]I[Aze][Sar][NPrPhe(4-CF3)][Sar][hPhe(3-Cl-4-CF3)][Pro(4,4-F2)][Ac5c][NMeGly(cPent)]D-Morpholide; lactam N-11)	158 nM	B (a compound having 3 or more and less than 10 is denoted as B)	B (a compound having 3 or more and less than 10 is denoted as B)
CCCN1C(=O)CN(C)C(=O)[C@@H]2CCN2C(=O)[C@H]([C@@H](C)CC)NC(=O)[C@H](CC(C)C)N(C)C(=O)C[C@@H](C(=O)N2CCOCC2)NC(=O)[C@H](C2CCCC2)N(C)C(=O)C2(CCC2)NC(=O)[C@@H]2C[C@@H](OCC)CN2C(=O)[C@H](CCc2ccc(C(F)(F)F)c(Cl)c2)NC(=O)CN(C)C(=O)[C@@H]1Cc1ccc(C(F)(F)F)cc1 [PP0342] ([NMeL]I[Aze][Sar][NPrPhe(4-CF3)][Sar][hPhe(3-Cl-4-CF3)][Hyp](Et)[Ac4c][NMeGly(cPent)]D-Morpholide; lactam N-11)	141 nM	B (a compound having 3 or more and less than 10 is denoted as B)	B (a compound having 3 or more and less than 10 is denoted as B)
CCCN1C(=O)[C@@H]2CCN2C(=O)[C@H](C)N(C)C(=O)[C@H]([C@@H](C)CC)NC(=O)[C@H](CC(C)C)N(C)C(=O)C[C@@H](C(=O)N2CCOCC2)NC(=O)[C@H](C2CCCC2)N(C)C(=O)C2(CCCC2)NC(=O)[C@@H]2CCCN2C(=O)[C@H](CCc2ccc(C(F)(F)F)c(Cl)c2)NC(=O)CN(C)C(=O)[C@@H]1Cc1ccc(C(F)(F)F)cc1 [PP0343] ([NMeL]I[NMeA][Aze][NPrPhe(4-CF3)][Sar][hPhe(3-Cl-4-CF3)]P[Ac5c][NMeGly(cPent)]D-Morpholide; lactam N-11)	47.6 nM	C (A compound having a KD ratio of 0.1 or more and less than 3 is denoted as C)	B (a compound having 3 or more and less than 10 is denoted as B)
CCCN1C(=O)[C@@H]2CCN2C(=O)[C@H](C)N(C)C(=O)[C@H]([C@@H](C)CC)NC(=O)[C@H](CC(C)C)N(C)C(=O)C[C@@H](C(=O)N2CCOCC2)NC(=O)[C@H](C2CCCC2)N(C)C(=O)C2(CCC2)NC(=O)[C@@H]2CCCN2C(=O)[C@H](CCc2ccc(C(F)(F)F)c(Cl)c2)NC(=O)CN(C)C(=O)[C@@H]1Cc1ccc(C(F)(F)F)cc1 [PP0344] ([NMeL]I[NMeA][Aze][NPrPhe(4-CF3)][Sar][hPhe(3-Cl-4-CF3)]P[Ac4c][NMeGly(cPent)]D-Morpholide; lactam N-11)	82.9 nM	C (A compound having a KD ratio of 0.1 or more and less than 3 is denoted as C)	B (a compound having 3 or more and less than 10 is denoted as B)
CCCN1C(=O)[C@@H]2CCN2C(=O)[C@H](C)N(C)C(=O)[C@H]([C@@H](C)CC)NC(=O)[C@H](CC(C)C)N(C)C(=O)C[C@@H](C(=O)N2CCOCC2)NC(=O)[C@H](C2CCCC2)N(C)C(=O)C2(CCCC2)NC(=O)[C@@H]2CC(F)(F)CN2C(=O)[C@H](CCc2ccc(C(F)(F)F)c(Cl)c2)NC(=O)CN(C)C(=O)[C@@H]1Cc1ccc(C(F)(F)F)cc1 [PP0345] ([NMeL]I[NMeA][Aze][NPrPhe(4-CF3)][Sar][hPhe(3-Cl-4-CF3)][Pro(4,4-F2)][Ac5c][NMeGly(cPent)]D-Morpholide; lactam N-11)	54.9 nM	C (A compound having a KD ratio of 0.1 or more and less than 3 is denoted as C)	B (a compound having 3 or more and less than 10 is denoted as B)

Further lines, with some results ahead:

IC50 [2]	Structure (SMILES)	NRAS /KRAS [1]	HRAS /KRAS (HRAS wild-type protein)
69.5 nM	CCCN1C(=O)[C@@H]2CCN2C(=O)[C@H](C)N(C)C(=O)[C@H]([C@@H](C)CC)NC(=O)[C@H](CC(C)C)N(C)C(=O)C[C@@H](C(=O)N2CCOCC2)NC(=O)[C@H](C2CCCC2)N(C)C(=O)C2(CCC2)NC(=O)[C@@H]2CC(F)(F)CN2C(=O)[C@H](CCc2ccc(C(F)(F)F)c(Cl)c2)NC(=O)CN(C)C(=O)[C@@H]1Cc1ccc(C(F)(F)F)cc1 [PP0346] ([NMeL]I[NMeA][Aze][NPrPhe(4-CF3)][Sar][hPhe(3-Cl-4-CF3)][Pro(4,4-F2)][Ac4c][NMeGly(cPent)]D-Morpholide; lactam N-11)	C (A compound having a KD ratio of 0.1 or more and less than 3 is denoted as C)	B (a compound having 3 or more and less than 10 is denoted as B)
10.9 nM	CCCN1C(=O)[C@@H]2CCN2C(=O)[C@H](C)N(C)C(=O)[C@H]([C@@H](C)CC)NC(=O)[C@H](CC(C)C)N(C)C(=O)C[C@@H](C(=O)N2CCOCC2)NC(=O)[C@H](C2CCCC2)N(C)C(=O)C2(CCCC2)NC(=O)[C@@H]2C[C@@H](OCC)CN2C(=O)[C@H](CCc2ccc(C(F)(F)F)c(Cl)c2)NC(=O)CN(C)C(=O)[C@@H]1Cc1ccc(C(F)(F)F)cc1 [PP0347] ([NMeL]I[NMeA][Aze][NPrPhe(4-CF3)][Sar][hPhe(3-Cl-4-CF3)][Hyp](Et)[Ac5c][NMeGly(cPent)]D-Morpholide; lactam N-11)	C (A compound having a KD ratio of 0.1 or more and less than 3 is denoted as C)	B (a compound having 3 or more and less than 10 is denoted as B)
15.1 nM	CCCN1C(=O)[C@@H]2CCN2C(=O)[C@H](C)N(C)C(=O)[C@H]([C@@H](C)CC)NC(=O)[C@H](CC(C)C)N(C)C(=O)C[C@@H](C(=O)N2CCOCC2)NC(=O)[C@H](C2CCCC2)N(C)C(=O)C2(CCC2)NC(=O)[C@@H]2C[C@@H](OCC)CN2C(=O)[C@H](CCc2ccc(C(F)(F)F)c(Cl)c2)NC(=O)CN(C)C(=O)[C@@H]1Cc1ccc(C(F)(F)F)cc1 [PP0348] ([NMeL]I[NMeA][Aze][NPrPhe(4-CF3)][Sar][hPhe(3-Cl-4-CF3)][Hyp](Et)[Ac4c][NMeGly(cPent)]D-Morpholide; lactam N-11)	C (A compound having a KD ratio of 0.1 or more and less than 3 is denoted as C)	B (a compound having 3 or more and less than 10 is denoted as B)
75.9 nM	CCCN1C(=O)[C@@H]2CCN2C(=O)CN(C)C(=O)[C@H]([C@@H](C)CC)NC(=O)[C@H](CC(C)C)N(C)C(=O)C[C@@H](C(=O)N2CCOCC2)NC(=O)[C@H](C2CCCC2)N(C)C(=O)C2(CCCC2)NC(=O)[C@@H]2CCCN2C(=O)[C@H](CCc2ccc(C(F)(F)F)c(Cl)c2)NC(=O)CN(C)C(=O)[C@@H]1Cc1ccc(C(F)(F)F)cc1 [PP0349] ([NMeL]I[Sar][Aze][NPrPhe(4-CF3)][Sar][hPhe(3-Cl-4-CF3)]P[Ac5c][NMeGly(cPent)]D-Morpholide; lactam N-11)	C (A compound having a KD ratio of 0.1 or more and less than 3 is denoted as C)	B (a compound having 3 or more and less than 10 is denoted as B)
69.8 nM	CCCN1C(=O)[C@@H]2CCN2C(=O)CN(C)C(=O)[C@H]([C@@H](C)CC)NC(=O)[C@H](CC(C)C)N(C)C(=O)C[C@@H](C(=O)N2CCOCC2)NC(=O)[C@H](C2CCCC2)N(C)C(=O)C2(CCC2)NC(=O)[C@@H]2CCCN2C(=O)[C@H](CCc2ccc(C(F)(F)F)c(Cl)c2)NC(=O)CN(C)C(=O)[C@@H]1Cc1ccc(C(F)(F)F)cc1 [PP0350] ([NMeL]I[Sar][Aze][NPrPhe(4-CF3)][Sar][hPhe(3-Cl-4-CF3)]P[Ac4c][NMeGly(cPent)]D-Morpholide; lactam N-11)	C (A compound having a KD ratio of 0.1 or more and less than 3 is denoted as C)	B (a compound having 3 or more and less than 10 is denoted as B)
